From PubChem BioAssay AID248 (DTP/NCI, 2004)
Toxic doses and inconclusive results are not listed. Cut-off read from the data, not from the text of the source: active = T/C of 150% or more; inactive = T/C below 125%.

Tested on: L1210 leukemia ip in BDF1 mice, survival T/C
Assay: NCI In Vivo Anticancer Drug Screen. Data for tumor model L1210 Leukemia (intraperitoneal) in B6D2F1 (BDF1) mice
Settings: endpoint: mean survival time, higher = longer survival
Summary of the method: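 Each compound was tested against a transplantable tumor grown in mice. The endpoint was survival, with treated animals benchmarked against vehicle controls as a simple ratio.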

[1] = dose: 100.0 mg/kg/injection, schedule: Q01DX001 (ip), vehicle: saline
[2] = dose: 200.0 mg/kg/injection, schedule: Q01DX001 (ip), vehicle: saline
[3] = dose: 400.0 mg/kg/injection, schedule: Q01DX001 (ip), vehicle: saline
[4] = dose: 100.0 mg/kg/injection, schedule: Q04DX003 (ip), vehicle: saline

Measured: T/C

CCOC(=O)C1(C(=O)OCC)COC(=O)C2(CC)OC21 (configuration not stated)
inactive: [1] 107 % of control | [2] 98 % of control | [3] 109 % of control

COc1ccc(CCN(CC(=O)O)S(=O)(=O)c2ccc(C)cc2)cc1OC
inactive: [1] 91 % of control | [2] 100 % of control | [3] 100 % of control

O=C(N/N=C/c1cc(Cl)ccc1[N+](=O)[O-])c1cccc2ccccc12
inactive: [2] 101 % of control | [3] 97 % of control

CCCc1ccccc1NC1=NCCO1
inactive: dose: 50.0 mg/kg/injection, schedule: Q04DX002 (ip), vehicle: saline with Tween-80 98 % of control | dose: 100.0 mg/kg/injection, schedule: Q04DX002 (ip), vehicle: saline with Tween-80 95 % of control | dose: 100.0 mg/kg/injection, schedule: Q04DX003 (ip), vehicle: saline with Tween-80 90 % of control | dose: 200.0 mg/kg/injection, schedule: Q04DX002 (ip), vehicle: saline with Tween-80 92 % of control | dose: 200.0 mg/kg/injection, schedule: Q04DX003 (ip), vehicle: saline with Tween-80 87 % of control | dose: 400.0 mg/kg/injection, schedule: Q04DX002 (ip), vehicle: saline with Tween-80 88 % of control | dose: 400.0 mg/kg/injection, schedule: Q04DX003 (ip), vehicle: saline with Tween-80 89 % of control

O=C1c2cc([N+](=O)[O-])ccc2-c2c1cccc2[N+](=O)[O-]
inactive: dose: 18.75 mg/kg/injection, schedule: Q01DX001 (ip), vehicle: Klucel (hydroxypropylcellulose) (HPC) 96 % of control | dose: 37.5 mg/kg/injection, schedule: Q01DX001 (ip), vehicle: Klucel (hydroxypropylcellulose) (HPC) 91 % of control | dose: 75.0 mg/kg/injection, schedule: Q01DX001 (ip), vehicle: Klucel (hydroxypropylcellulose) (HPC) 96 % of control | dose: 150.0 mg/kg/injection, schedule: Q01DX001 (ip), vehicle: Klucel (hydroxypropylcellulose) (HPC) 98 % of control | dose: 300.0 mg/kg/injection, schedule: Q01DX001 (ip), vehicle: Klucel (hydroxypropylcellulose) (HPC) 87 % of control

CCCCS(=O)(=O)N(CC)CC
inactive: dose: 100.0 mg/kg/injection, schedule: Q01DX009 (ip), vehicle: carboxymethylcellulose (CMC) 109 % of control | dose: 200.0 mg/kg/injection, schedule: Q01DX009 (ip), vehicle: carboxymethylcellulose (CMC) 96 % of control

O=C(NCc1cnccn1)Nc1ccccc1
inactive: dose: 25.0 mg/kg/injection, schedule: Q01DX009 (ip), vehicle: saline 101 % of control | dose: 50.0 mg/kg/injection, schedule: Q01DX009 (ip), vehicle: saline 87 % of control | dose: 100.0 mg/kg/injection, schedule: Q01DX009 (ip), vehicle: saline 108 % of control | dose: 200.0 mg/kg/injection, schedule: Q01DX009 (ip), vehicle: saline 102 % of control | dose: 400.0 mg/kg/injection, schedule: Q01DX009 (ip), vehicle: saline 103 % of control

CC12CCC3c4ccc(O)cc4CCC3C1CCC2=O (configuration not stated)
inactive: dose: 100.0 mg/kg/injection, schedule: Q01DX001 (sc), vehicle: steriod suspending solution 92 % of control | dose: 200.0 mg/kg/injection, schedule: Q01DX001 (sc), vehicle: steriod suspending solution 92 % of control | dose: 400.0 mg/kg/injection, schedule: Q01DX001 (sc), vehicle: steriod suspending solution 86 % of control

O=C(CF)N(O)c1ccc(/C=C/c2ccccc2)cc1
inactive: dose: 100.0 mg/kg/injection, schedule: Q01DX001 (ip), vehicle: carboxymethylcellulose (CMC) 101 % of control | dose: 200.0 mg/kg/injection, schedule: Q01DX001 (ip), vehicle: carboxymethylcellulose (CMC) 113 % of control

CN(Cc1cnc2nc(N)nc(N)c2n1)c1ccc(C(=O)NC(CCC(=O)O)C(=O)O)cc1C(F)(F)F (configuration not stated)
active: dose: 5.0 mg/kg/injection, schedule: Q01DX009 (ip), vehicle: sodium bicarbonate 158 % of control | dose: 10.0 mg/kg/injection, schedule: Q01DX009 (ip), vehicle: sodium bicarbonate 168 % of control

CCOC(=O)c1ccc(NCC(C)(C)N)cc1
inactive: [4] 97 % of control

CC1=C2CCCC(=O)C2(C)CCC1=O (configuration not stated)
inactive: dose: 100.0 mg/kg/injection, schedule: Q04DX002 (ip), vehicle: Klucel (hydroxypropylcellulose) (HPC) 107 % of control | dose: 200.0 mg/kg/injection, schedule: Q04DX002 (ip), vehicle: Klucel (hydroxypropylcellulose) (HPC) 96 % of control

CC1(C)OCC2OC(N)C(O)C2O1 (configuration not stated)
inactive: [4] 100 % of control | dose: 200.0 mg/kg/injection, schedule: Q04DX003 (ip), vehicle: saline 89 % of control | dose: 400.0 mg/kg/injection, schedule: Q04DX003 (ip), vehicle: saline 98 % of control

COc1cc(/C=N/NC(=O)CNC(=O)NCc2ccccc2)ccc1O
inactive: dose: 50.0 mg/kg/injection, schedule: Q01DX009 (ip), vehicle: saline with Tween-80 92 % of control | dose: 100.0 mg/kg/injection, schedule: Q01DX009 (ip), vehicle: saline with Tween-80 95 % of control
